From patent EP4745124A1, “NAPHTHALIMIDE-BASED CORONAVIRUS PAPAIN-LIKE PROTEASE INHIBITOR” (Guangzhou National Laboratory, priority 2023, dated 2025) come the findings set out here.

The assay has as its target T1, SARS-CoV-2 PL^Pro (Severe acute respiratory syndrome coronavirus 2, UniProt P0DTD1).
T1 construct: SARS-CoV-2 PL^Pro catalytic domain (746-1060); made in house
The experiment in a line: biochemical.

The mark [1] stands for this setting: SARS-CoV-2 PLPro catalytic domain (746-1060), 10 minutes pre-incubation, read-out: PLpro IC50.

Read-outs that look alike come from different tables or passages of the source.

For orientation: IC50 means the concentration needed to halve the response being measured.

For `Cc1ccc(N2CCN(C)CC2)cc1C(=O)NC1(c2ccc3c4c(cccc24)C(=O)N3)CC1` [Compound P2, 2-Methyl-5-(4-methylpiperazin-1-yl)-N-(1-(2-oxo-1,2-dihydrobenzo[cd]indol-6-yl)cyclopropyl)benzamide], the IC50 under setting [1] lay in the range of 40 to 100 nM. As for `Cc1ccc(C2CCNCC2)cc1C(=O)NC1(c2ccc3c4c(cccc24)C(=O)N3C)CC1` [Compound P4, 2-Methyl-N-(1-(1-methyl-2-oxo-1,2-dihydrobenzo[cd]indol-6-yl)cyclopropyl)-5-(piperidin-4-yl)benzamide], the IC50 under setting [1] lay within 40 to 100 nM. Molecule `Cc1ccc(N2C3CCC2CNC3)cc1C(=O)NC1(c2ccc3c4c(cccc24)C(=O)N3C)CC1` [Compound P6, 5-(3,8-diazabicyclo[3.2.1]octan-8-yl)-2-methyl-N-(1-(1-methyl-2-oxo-1,2-dihydrobenzo[cd]indol-6-yl)cyclopropyl)ben zamide] yielded an IC50 below 40 nM. As for `Cc1ccc(N2C3CCC2CN(C)C3)cc1C(=O)NC1(c2ccc3c4c(cccc24)C(=O)N3C)CC1` [Compound P8, 2-Methyl-N-(1-(1-methyl-2-oxo-1,2-dihydrobenzo[cd]indol-6-yl)cyclopropyl)-3-methyl-3,8-diazabicyclo[3.2.1]octan-8-yl benzamide], the IC50 is 100 to 1000 nM. `Cc1ccc(N2CC3CNCC3C2)cc1C(=O)NC1(c2ccc3c4c(cccc24)C(=O)N3C)CC1` (stereo not shown) [Compound P9, 5-(hexahydropyrrolo[3,4-c]pyrrol-2(1H)-yl)-2-methyl-N-(1-(1-methyl-2-oxo-1,2-dihydrobenzo[cd]indol-6-yl)cyclopropyl)benzamide]: the IC50 under setting [1] was below 40 nM. On the same count and under the same terms, for `Cc1ccc(N2CCNCC2C)cc1C(=O)NC1(c2ccc3c4c(cccc24)C(=O)N3C)CC1` (stereo not shown) [Compound P10, 2-Methyl-N-(1-(1-methyl-2-oxo-1,2-dihydrobenzo[cd]indol-6-yl)cyclopropyl)-5-(2-methylpiperazin-1-yl)benzamide] the value was 100 to 1000 nM.

In the case of `Cc1ccc(N2CCNC3(CC3)C2)cc1C(=O)NC1(c2ccc3c4c(cccc24)C(=O)N3C)CC1` [Compound P12, 2-Methyl-N-(1-(1-methyl-2-oxo-1,2-dihydrobenzo[cd]indol-6-yl)cyclopropyl)-5-(4,7-diazaspiro[2,5]octan-7-yl) benzamide], the IC50 lay in the range of 40 to 100 nM. For the molecule `Cc1ccc(N2CCC(N(C)C)CC2)cc1C(=O)NC1(c2ccc3c4c(cccc24)C(=O)N3C)CC1` [Compound P13, 5-(4-(Dimethylamino)piperidin-1-yl)-2-methyl-N-(1-(1-methyl-2-oxo-1,2-dihydrobenzo[cd]indol-6-yl)cyclopropyl)ben zamide], the IC50 under setting [1] was 100 to 1000 nM. As to `CCN1CCN(c2ccc(C)c(C(=O)NC3(c4ccc5c6c(cccc46)C(=O)N5C)CC3)c2)C[C@@H]1C` [Compound P14, (S)-5-(4-ethyl-3-methylpiperazin-1-yl)-2-methyl-N-(1-(1-methyl-2-oxo-1,2-dihydrobenzo[cd]indol-6-yl)cyclopropyl)be nzamide], the IC50 under setting [1] is below 40 nM. Same read-out and setting: the result for `Cc1ccc(-n2ccc(N(C)C)c2)cc1C(=O)NC1(c2ccc3c4c(cccc24)C(=O)N3C)CC1` [Compound P15, 5-(3-(dimethylamino)pyrrol-1-yl)-2-methyl-N-(1-(1-methyl-2-oxo-1,2-dihydrobenzo[cd]indol-6-yl)cyclopropyl)benzamide] reads below 40 nM; that for `Cc1ccc(N2CC(N3C=CC(F)(F)C3)C2)cc1C(=O)NC1(c2ccc3c4c(cccc24)C(=O)N3C)CC1` [Compound P18, 5-(3-(3,3-difluoropyrrol-1-yl)azetidin-1-yl)-2-methyl-N-(1-(1-methyl-2-oxo-1,2-dihydrobenzo[cd]indol-6-yl)cyclopropyl)benzamide], 100 to 1000 nM. `Cc1ccc(N2CC3(CCN(C)C3)C2)cc1C(=O)NC1(c2ccc3c4c(cccc24)C(=O)N3C)CC1` [Compound P19]: under “read-out: PLpro IC50”, the IC50 was 100 to 1000 nM. As for `Cc1ccc(N2C[C@H]3CN(C)C[C@H]32)cc1C(=O)NC1(c2ccc3c4c(cccc24)C(=O)N3C)CC1` [Compound P20, 2-Methyl-N-(1-(1-methyl-2-oxo-1,2-dihydrobenzo[cd]indol-6-yl)cyclopropyl)-5-((1R,5S)-3-methyl-3,6-diazabicyclo[3. 2.0]heptan-6-yl)benzamide], the IC50 under setting [1] lay within 100 to 1000 nM. `Cc1ccc(N2CC3CC(C2)N3C)cc1C(=O)NC1(c2ccc3c4c(cccc24)C(=O)N3C(C)C)CC1` [Compound P21, N-(1-(1-isopropyl-2-oxo-1,2-dihydrobenzo[cd]indol-6-yl)cyclopropyl)-2-methyl-5-(6-methyl-3,6-diazabicyclo[3.1.1]heptan-3-yl)benzamide] returned a half-maximal inhibitory concentration (IC50) below 40 nM. Regarding `Cc1ccc(C2CCN(C)CC2)cc1C(=O)NC1(c2ccc3c4c(cccc24)C(=O)N3C)CC1` [Compound P22, 2-methyl-N-(1-(1-methyl-2-oxo-1,2-dihydrobenzo[cd]indol-6-yl)cyclopropyl)-5-(1-methylpiperidin-4-yl)benzamide], the IC50 under setting [1] was in the range of 40 to 100 nM. For `Cc1ccc(N2CC(N3CCN(C)CC3)C2)cc1C(=O)NC1(c2ccc3c4c(cccc24)C(=O)N3C)CC1` [Compound P23, 2-Methyl-N-(1-(1-methyl-2-oxo-1,2-dihydrobenzo[cd]indol-6-yl)cyclopropyl)-5-(3-(4-methylpiperazin-1-yl)azetidin-1-yl)benzamide], the IC50 under setting [1] lay in the range of 100 to 1000 nM.

For `Cc1ccc(N2CC(N3CCCCC3)C2)cc1C(=O)NC1(c2ccc3c4c(cccc24)C(=O)N3C)CC1` [Compound P24, 2-Methyl-N-(1-(1-methyl-2-oxo-1,2-dihydrobenzo[cd]indol-6-yl)cyclopropyl)-5-(3-(piperidin-1-yl)azetidin-1-yl)benzamide], the IC50 under setting [1] is below 40 nM. On the same count and under the same terms, the result for `Cc1ccc(N2CCN3CCC[C@@H]3C2)cc1C(=O)NC1(c2ccc3c4c(cccc24)C(=O)N3C)CC1` [Compound P25, (R)-5-(hexahydropyrrolo[1,2-a]pyrazin-2(1H)-yl)-2-methyl-N-(1-(1-methyl-2-oxo-1,2-dihydrobenzo[cd]indol-6-yl)cyclopropyl)benzamide] reads below 40 nM; that for `Cc1ccc(N2CC(N3CCC(F)CC3)C2)cc1C(=O)NC1(c2ccc3c4c(cccc24)C(=O)N3C)CC1` [Compound P26, 5-(3-(4-fluoropiperidin-1-yl)azetidin-1-yl)-2-methyl-N-(1-(1-methyl-2-oxo-1,2-dihydrobenzo[cd]indol-6-yl)cyclopropyl)benzamide], below 40 nM; that for `CCN1C(=O)c2cccc3c(C4(NC(=O)c5cc(N6CCN(C)CC6)ccc5C)CC4)ccc1c23` [Compound P27, N-(1-(1-ethyl-2-oxo-1,2-dihydrobenzo[cd]indol-6-yl)cyclopropyl)-2-methyl-5-(4-methylpiperazin-1-yl)benzamide], below 40 nM.

On to `CCN1C(=O)c2cccc3c(C4(NC(=O)c5cc(N6CC(N7CCC(C)(O)CC7)C6)ccc5C)CC4)ccc1c23` [Compound P28, N-(1-(1-Ethyl-2-oxo-1,2-dihydrobenzo[cd]indol-6-yl)cyclopropyl)-5-(3-(4-hydroxy-4-methylpiperidin-1-yl)azetidin-1-yl)-2-methyl-benzamide], for which the IC50 under setting [1] is below 40 nM. Turning to `CCN1C(=O)c2cccc3c(C4(NC(=O)c5cc(N6CC7CC(C6)N7)ccc5C)CC4)ccc1c23` [Compound P29], the IC50 (read-out: PLpro IC50) was below 40 nM. Turning to `Cc1ccc(N2CC(N3CCC(F)C3)C2)cc1C(=O)NC1(c2ccc3c4c(cccc24)C(=O)N3C)CC1` (stereo not shown) [Compound P30, 5-(3-(3-fluoropyrrolidin-1-yl)azetidin-1-yl)-2-methyl-N-(1-(1-methyl-2-oxo-1,2-dihydrobenzo[cd]indol-6-yl)cyclopropyl)benzamide], under setting [1], the IC50 was below 40 nM.

Turning to `Cc1ccc(N2CC(N3CCC(F)(F)CC3)C2)cc1C(=O)NC1(c2ccc3c4c(cccc24)C(=O)N3C)CC1` [Compound P31, 5-(3-(4,4-difluoropiperidin-1-yl)azetidin-1-yl)-2-methyl-N-(1-(1-methyl-2-oxo-1,2-dihydrobenzo[cd]indol-6-yl)cyclopropyl)benzamide], the IC50 under setting [1] lay within 40 to 100 nM. The same measure, in the same setting: for `Cc1ccc(N2CC(N3CCC(O)CC3)C2)cc1C(=O)NC1(c2ccc3c4c(cccc24)C(=O)N3C)CC1` [Compound P32, 5-(3-(4-hydroxypiperidin-1-yl)azetidin-1-yl)-2-methyl-N-(1-(1-methyl-2-oxo-1,2-dihydrobenzo[cd]indol-6-yl)cyclopropyl)benzamide] the value was below 40 nM.

For `Cc1ccc(N2CC(N3CCOC(C)(C)C3)C2)cc1C(=O)NC1(c2ccc3c4c(cccc24)C(=O)N3C)CC1` [Compound P33, 5-(3-(2,2-dimethylmorpholinyl)azetidin-1-yl)-2-methyl-N-(1-(1-methyl-2-oxo-1,2-dihydrobenzo[cd]indol-6-yl)cyclopropyl)benzamide], for the setting “read-out: PLpro IC50”, the half-inhibitory concentration (IC50) lay in the range of 100 to 1000 nM. For `Cc1ccc(N2CC(N3CCCCC3C)C2)cc1C(=O)NC1(c2ccc3c4c(cccc24)C(=O)N3C)CC1` (stereo not shown) [Compound P34, 2-Methyl-N-(1-(1-methyl-2-oxo-1,2-dihydrobenzo[cd]indol-6-yl)cyclopropyl)-5-(3-(2-methylpiperidin-1-yl)azetidin-1-yl)benzamide], the IC50 under setting [1] was below 40 nM. In the case of `Cc1ccc(N2CC(N3CCS(=O)(=O)CC3)C2)cc1C(=O)NC1(c2ccc3c4c(cccc24)C(=O)N3C)CC1` [Compound P35, 5-(3-(1,1-dioxothiomorpholin)azetidin-1-yl)-2-methyl-N-(1-(1-methyl-2-oxo-1,2-dihydrobenzo[cd]indol-6-yl)cyclopropyl)benzamide], the IC50 (read-out: PLpro IC50) was 100 to 1000 nM. On the same count and under the same terms, for `Cc1ccc(N2CC[C@H](N(C)C(C)C)C2)cc1C(=O)NC1(c2ccc3c4c(cccc24)C(=O)N3C)CC1` [Compound P36] the value was below 40 nM.

As to `Cc1ccc(N2CCC(N3CCCC3)C2)cc1C(=O)NC1(c2ccc3c4c(cccc24)C(=O)N3C)CC1` (stereo not shown) [Compound P37, 5-([1,3'-dipyrrolidin]-1'-yl)-2-methyl-N-(1-(1-methyl-2-oxo-1,2-dihydrobenzo[cd]indol-6-yl)cyclopropyl)benzamide], the IC50 (read-out: PLpro IC50) lay in the range of 40 to 100 nM. With `Cc1ccc(N2CCC(CN3CCOCC3)CC2)cc1C(=O)NC1(c2ccc3c4c(cccc24)C(=O)N3C)CC1` [Compound P38, 2-Methyl-N-(1-(1-methyl-2-oxo-1,2-dihydrobenzo[cd]indol-6-yl)cyclopropyl)-5-(4-(morpholinomethyl)piperidin-1-yl)b enzamide], under setting [1], the IC50 fell in the range of 100 to 1000 nM.
